Values quoted from earlier work, collected in patent publication US7026301B2, “Method of orally treating inflammatory skin conditions with prodrugs of 5-fluorouracil” (New York University, priority 2002, dated 2006).

How the values were obtained:
[1] = treated patients; for patients in whom hand-foot syndrome occurred: any grade
[2] = biological target: T1, dihydropyrimidine dehydrogenase (DPD) (Homo sapiens, UniProt Q12882)
T1 construct: host or cells: endogenous enzyme of patients (in vivo)
T1 sequence (Q12882 4-1025): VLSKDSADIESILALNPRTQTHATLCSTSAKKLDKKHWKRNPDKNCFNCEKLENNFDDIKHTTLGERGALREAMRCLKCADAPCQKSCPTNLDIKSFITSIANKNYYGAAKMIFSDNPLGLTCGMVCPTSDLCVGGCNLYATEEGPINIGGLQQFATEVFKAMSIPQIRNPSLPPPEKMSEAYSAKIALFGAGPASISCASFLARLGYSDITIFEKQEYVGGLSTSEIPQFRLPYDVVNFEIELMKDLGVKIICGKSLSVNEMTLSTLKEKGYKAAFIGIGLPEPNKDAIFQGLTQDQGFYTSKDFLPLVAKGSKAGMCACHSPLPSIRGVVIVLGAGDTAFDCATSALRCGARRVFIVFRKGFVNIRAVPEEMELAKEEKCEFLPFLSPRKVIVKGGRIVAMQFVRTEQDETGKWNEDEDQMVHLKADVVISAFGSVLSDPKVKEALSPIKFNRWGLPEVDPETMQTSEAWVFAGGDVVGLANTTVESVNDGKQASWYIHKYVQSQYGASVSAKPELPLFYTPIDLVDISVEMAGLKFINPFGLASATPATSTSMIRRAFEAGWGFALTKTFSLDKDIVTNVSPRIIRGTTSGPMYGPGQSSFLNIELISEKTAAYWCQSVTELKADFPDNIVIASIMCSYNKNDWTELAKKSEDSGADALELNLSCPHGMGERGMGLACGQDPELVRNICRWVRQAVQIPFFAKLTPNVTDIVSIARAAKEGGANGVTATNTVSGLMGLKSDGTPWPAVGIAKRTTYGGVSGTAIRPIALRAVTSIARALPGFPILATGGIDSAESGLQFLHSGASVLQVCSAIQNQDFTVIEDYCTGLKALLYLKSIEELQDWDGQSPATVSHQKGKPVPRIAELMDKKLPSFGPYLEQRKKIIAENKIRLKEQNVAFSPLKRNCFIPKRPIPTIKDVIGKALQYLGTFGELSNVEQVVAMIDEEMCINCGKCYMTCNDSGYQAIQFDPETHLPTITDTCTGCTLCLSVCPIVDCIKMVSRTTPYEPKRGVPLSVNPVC

[3] = humans

| Compound | patients in whom hand-foot syndrome occurred [1] | patients with the most severe form (grade 3) of hand-foot syndrome [1] | share of the injected dose deactivated by DPD [2] | oral absorption [3] |
| --- | --- | --- | --- | --- |
| 5-FU/leucovorin | 6% | 1% |  |  |
| O=c1[nH]cc(F)c(=O)[nH]1 [5-FU, 5-fluorouracil] |  |  | more than 85% |  |
| CCCCCOC(=O)Nc1nc(=O)n([C@@H]2O[C@H](C)[C@@H](O)[C@H]2O)cc1F [capecitabine, N^4-pentyloxycarbonyl-5′-deoxy-5-fuorocytidine] | 53% | 17% |  | rapidly and almost completely absorbed |
